Experimental data: paper PMC12595484, “Optimizing multifunctional fluorescent ligands for intracellular labeling” (Proceedings of the National Academy of Sciences of the …, 2025)
Read-outs that look alike come from different tables or passages of the source.

Columns and labels:
[1] = Determination of logD7.4 (miniaturized shake flask, octanol–PBS); format: physicochemical
Protocol: (§1) Detailed descriptions of the materials and methods are provided in the supporting information. Multifunctional rhodamine–HaloTag ligands (13HTL–16HTL and 18HTL–20HTL) were synthesized using palladium-catalyzed cross-coupling reactions to install 3-carboxyazetidine moieties onto rhodamine scaffolds, followed by amide bond formation with biotin–PEG2–NH2, (S)-JQ1–PEG2–NH2, or (R)-JQ1–PEG2–NH2. Spectroscopic properties (λabs, λem, ε, and Φf) were determined in 10 mM HEPES, pH 7.3. The lactone–zwitterion equilibrium constants (KL–Z) were measured in 1:1 (v/v) dioxane–water mixtures. Octanol–water distribution coefficients (logD7.4) were determined by miniaturized shake-flask partitioning experiments using PBS (pH 7.4) and 1-octanol. Cell culture experiments employed HEK293T, U2OS, and Neuro2a cells transfected with HaloTag fusion constructs and labeled with ligands (100 nM to 1 μM, 0.5 to 2 h at 37 °C), followed by fluorescence microscopy using confocal or lattice light-sheet microscopy. Affinity purification studies utilized streptavidin magnetic beads to capture biotin-labeled HaloTag conjugates, with analysis by SDS-PAGE and in-gel fluorescence detection. […]
Reported values are averages of at least two measurements.
Determination of logD7.4. The log of distribution coefficients at pH 7.4 was determined in octanol–phosphate-buffered saline (PBS) using a miniaturized shake flask setup described previously.6, 7 Briefly, 150 mL each of octanol and PBS pH 7.4 were stirred vigorously for 12–16 h. The layers were allowed to stand for at least 24 h for phase separation. The separated layers were collected and served as PBS saturated with octanol (PBS*) and octanol saturated with PBS (octanol*). Stock solutions (1 mM or 5 mM) of ligands were prepared in DMSO and diluted in PBS* to obtain 1 μM or 10 μM (3–5 mL) of the standard (std). This standard was used to prepare appropriate dilutions using octanol*, in triplicate, in 2-mL glass vials. The leftover standard was used to determine the standard concentration (Cstd). The vials were vortexed for 1 min and shaken horizontally at 700 rpm for 2 h. The vials were then shaken upright at 150 rpm for 2 h to allow the phases to separate. The octanol* layer was pipetted out, and the PBS* layer was used for further analyses. The concentrations of ligands in the standard and PBS* (CPBS*) were determined via fluorescence measurements of 200 μL of PBS* or std in 96-well plates on the Cytation 5 Multimode Plate Reader (BioTek). For Si-rhodamine containing ligands, 2–20 μL of […]
trifluoroacetic acid was added to each well of the 96-well plate prior to the fluorescence measurements. Reported values are averages of at least two measurements. The logD7.4 was obtained as described previously using equation 2: logD = log *’(" × r − 1. +)*+∗ / (2) […]
where Cstd is the standard concentration in PBS, CPBS* is the concentration in PBS after partitioning, r is the dilution factor of the standard solution, VPBS* is the volume of PBS used in the partitioning, and Voctanol* is the volume of octanol used in the partitioning.
Plasmid construction for mitochondria imaging and affinity purification. HaloTag, amplified from the pHTC HaloTag CMV-neo Vector (Promega; G7711) and monomeric-superfolder green fluorescent protein (msGFP; lab stock), was fused to the mitochondrial targeting signal from OMP25,8 interspacing flexible GS(GSS)4 linkers between each domain by PCR Splicing by Overlap Extension (SOE). This construct was subcloned into hSynapsin promoter bearing a copy of FUGW.9 FUGW was a gift from David Baltimore (Addgene plasmid # 14883; RRID:
Addgene_14883).10 This construct was designated as pF(UG) hSyn HaloTag-TEV-4×GS-msGFP- […]
HEK293T cell culture. HEK293T cells (ATCC) were passaged before 80% confluency by trypsinization (Corning; 25-053-CI) and trituration. The cell suspension was then plated on glass coverslips (Warner instruments; 64-0734, CS-18R17) coated with poly-D-lysine (Thermofisher; […]

[2] = Spectroscopy of HaloTag ligands and HaloTag conjugates; format: physicochemical; settings: 10 mM HEPES, pH 7.3
Protocol: as §1
HaloTag protein purification. The bacterial expression vector pRSET-A (Invitrogen) was used to recombinantly express HaloTag (HT7; Promega).1 The soluble 6×His-Tagged HaloTag protein was affinity purified by immobilized metal affinity chromatography (IMAC) on a 5 -mL Fast Flow HiTrap Sepharose 6 column (Cytiva) with a 0–200 mM imidazole elution gradient using an Avant Protein Purification System (ÄKTA). A280 peak fractions were pooled, concentrated by a spin concentrator, and dialyzed 3× into tris-buffered saline (TBS). The amino acid sequence of HaloTag (HT7) expressed from pRSET-A is noted below; the annotated DNA and amino acid sequences […]
Spectroscopy of HaloTag ligands and HaloTag conjugates. Compounds 13HTL–16HTL, 18HTL, and 19HTL were prepared as stock solutions in DMSO and diluted such that the final DMSO […]
All measurements were taken at ambient temperature (22
± 2 °C). Absorption spectra were recorded on a Cary Model 100 spectrometer (Agilent) using 1-cm path length 1.0-mL quartz microcuvettes from Starna Cells. Fluorescence spectra were recorded on a Cary Eclipse fluorometer (Varian) using 1-cm path length 3.5-mL quartz cuvettes (Starna Cells). As before,2-4 HaloTag protein was used as a 100 μM solution in 1× TBS. HaloTag ligands 13HTL–16HTL, 18HTL, and 19HTL (5 μM) were dissolved in 10 mM HEPES, pH 7.3, containing 0.1 mg/mL CHAPS. An aliquot of HaloTag protein (1.5 equiv) was added, and the resulting mixture was incubated until a consistent absorbance signal was observed (60–120 min).
To measure the fold-increase of absorbance upon HaloTag binding, a “no HaloTag” control experiment was performed where an equivalent volume of TBS blank was added in place of the protein. Reported values for extinction coefficient (ε) are averages of at least two measurements. […]
Quantum yield determination. All reported absolute fluorescence quantum yield values (Φf) were measured in our laboratory under identical conditions using a Quantaurus-QY spectrometer (model C11374, Hamamatsu). This instrument uses an integrating sphere to determine photons absorbed and emitted by a sample. Measurements were performed using dilute samples (absorbance < 0.1), and self-absorption corrections were performed using the instrument software.5 Reported values are averages of at least two measurements.
Determination of logD7.4. The log of distribution coefficients at pH 7.4 was determined in octanol–phosphate-buffered saline (PBS) using a miniaturized shake flask setup described previously.6, 7 Briefly, 150 mL each of octanol and PBS pH 7.4 were stirred vigorously for 12–16 h. The layers were allowed to stand for at least 24 h for phase separation. The separated layers were collected and served as PBS saturated with octanol (PBS*) and octanol saturated with PBS […]

[3] = 1-octanol/PBS, octanol–PBS pH 7.4, miniaturized shake flask, read-out: logD7.4

Row | logD [1, 3] | SMILES | logD ([1]; pH 7.4) | Φf [2] | ε [2] | λabs [2] [nm] | λem [2] [nm]
1 |  | C[Si]1(C)c2cc(N3CC(F)C3)ccc2C2(OC(=O)c3ccc(C(=O)NCCOCCOCCCCCCCl)cc32)c2ccc(N3CC(F)C3)cc21 [6HTL, JF635–HaloTag ligand, reference compound] | 3.82 | 0.60 | ~ 400 M^−1cm^−1 | 640 | 658
2 |  | C[Si]1(C)C2=CC(=[N+]3CC(C(=O)NCCOCCOCCNC(=O)CCCC[C@@H]4SC[C@@H]5NC(=O)N[C@@H]54)C3)C=CC2=C(c2cc(C(=O)NCCOCCOCCCCCCCl)ccc2C(=O)[O-])c2ccc(N3CCC3)cc21 (stereo partly shown) [15HTL, biotin–JF646–HaloTag ligand] | 3.06 | 0.56 | 34,000 M^−1cm^−1 | 647 | 666
3 | 0.07 | O=C(CCCCC1SCC2NC(=O)NC21)NCCOCCOCCNC(=O)C1C[N+](=c2ccc3c(-c4cc(C(=O)NCCOCCOCCCCCCCl)ccc4C(=O)[O-])c4ccc(N5CCC5)cc4oc-3c2)C1 (stereo not shown) [13HTL, biotin–JF549–HaloTag ligand] |  | 0.90 | 92,000 M^−1cm^−1 | 552 | 575
4 |  | C[Si]1(C)C2=CC(=[N+]3CC(F)(C(=O)NCCOCCOCCNC(=O)CCCC[C@@H]4SC[C@@H]5NC(=O)N[C@@H]54)C3)C=CC2=C(c2cc(C(=O)NCCOCCOCCCCCCCl)ccc2C(=O)[O-])c2ccc(N3CC(F)C3)cc21 (stereo partly shown) [16HTL, biotin–JF635–HaloTag ligand] | 3.6 | 0.60 | 2,900 M^−1cm^−1 | 636 | 655
5 | 2.63 | CC1(C)C2=CC(=[N+]3CC(C(=O)NCCOCCOCCNC(=O)CCCC[C@@H]4SC[C@@H]5NC(=O)N[C@@H]54)C3)C=CC2=C(c2cc(C(=O)NCCOCCOCCCCCCCl)ccc2C(=O)[O-])c2ccc(N3CCC3)cc21 (stereo partly shown) [14HTL, biotin–JF608–HaloTag ligand] |  | 0.65 | 92,300 M^−1cm^−1 | 610 | 634
